In brackets after ≈: the same amount, converted by molar mass.
Test system: rhinovirus, HRV-14
Test: Anti-picornaviral plaque reduction assay
Format: cell-based
Conditions: Rhinovirus B, HRV14, Table 1, 50% inhibition of plaque formation, BSC-1 or Hela cells, 120 hours at 32° C., trans isomer

Q: For `CC(=O)/C=C(/c1ccc2nc(N)n(S(=O)(=O)C(C)C)c2c1)c1cccc(F)c1F` [Example 11, Trans 1-Isopropylsulfonyl-2-Amino-6-(1-[2,3-Difluorophenyl]-2-(1-Oxoeth-1-yl)ethen-1-yl)benzimidazole], which IC50 is on record?
A: 0.048 µg/mL (≈ 0.114 µM)

Q: Which IC50 does the source give for `CC(C)S(=O)(=O)n1c(N)nc2ccc(/C(=C/[S+](C)[O-])c3ccccc3)cc21` (centres unmarked) [10 (parent), reference compound] here?
A: 3.52 µg/mL (≈ 8.72 µM)

Q: Which IC50 does the source give for `COC(=O)/C=C(/c1ccc2nc(N)n(S(=O)(=O)C(C)C)c2c1)c1cccc(F)c1F` [Example 12] here?
A: 0.052 µg/mL (≈ 0.119 µM)

Q: With `CC(C)S(=O)(=O)n1c(N)nc2ccc(/C(=N/O)c3cccc(F)c3F)cc21` [Example 13, Trans 1-Isopropylsulfonyl-2-Amino-6-(1-[2,3-Difluorophenyl]oximyl)benzimidazole] as the molecule, how does the IC50 read?
A: 0.051 µg/mL (≈ 0.129 µM)

Q: For `CC(C)S(=O)(=O)n1c(N)nc2ccc(/C(=C/S(C)(=O)=O)c3cccc(F)c3F)cc21` [Example 8, Trans 1-Isopropylsulfonyl-2-Amino-6-(1-[2,3-Difluorophenyl]-2-Methylsulfonylethen-1-yl)benzimidazole], which IC50 is on record?
A: 0.05 µg/mL (≈ 0.11 µM)

Q: For `CC(C)S(=O)(=O)n1c(N)nc2ccc(/C(=C/[S+](C)[O-])c3cccc(F)c3F)cc21` (centres unmarked) [Example 10], which IC50 is on record?
A: 0.394 µg/mL (≈ 0.896 µM)

Q: Which IC50 does the source give for `COC(=O)/C=C(\c1ccccc1)c1ccc2nc(N)n(S(=O)(=O)C(C)C)c2c1` [12 (parent), reference compound] here?
A: 0.05 µg/mL (≈ 0.125 µM)

Q: How did the IC50 turn out when `CS/C=C(\c1ccccc1)c1ccc2nc(N)n(S(=O)(=O)C(C)C)c2c1` [9 (parent), reference compound] was run?
A: 2.58 µg/mL (≈ 6.66 µM)

Q: For `CC(=O)/C=C(\c1ccc(F)cc1)c1ccc2nc(N)n(S(=O)(=O)C(C)C)c2c1` [Example 14, 1-Isopropylsulfonyl-2-Amino-6-(1-[4-Fluorophenyl]-2-(1-Oxoeth-1-yl)ethen-1-yl)benzimidazole], which IC50 is on record?
A: 0.21 µg/mL (≈ 0.523 µM)

Q: Which IC50 does the source give for `CC(C)S(=O)(=O)n1c(N)nc2ccc(/C(=N/O)c3ccccc3)cc21` [13 (parent), reference compound] here?
A: 0.05 µg/mL (≈ 0.139 µM)

Q: `CS/C=C(/c1ccc2nc(N)n(S(=O)(=O)C(C)C)c2c1)c1cccc(F)c1F` [Example 9, 1-Isopropylsulfonyl-2-Amino-6-(1-[2,3-Difluorophenyl]-2-Methylsulfidoethen-1-yl)benzimidazole] was tested. Which IC50 did it give?
A: 0.072 µg/mL (≈ 0.17 µM)

— patent publication US6114327A, “Anti-viral compounds” (Eli Lilly and Company, priority 1999, dated 2000)
